One data set deals with PBMC. As to the kind of experiment: Antiinflammatory activity in human PBMC assessed as inhibition of LPS-induced TNFalpha production treated 30 mins before LPS challenge measured after 6 hrs of LPS induction by ELISA. It is filed as functional, cell-based. In general terms: In an ELISA, binding on a coated surface is turned into a signal by an enzyme label.
Data set [1] can be described thus: Solubility of the compound. It is filed as physicochemical.
Data set [2] in a line: Inhibition of IKK1-catalyzed phosphorylation of GST-tagged IkappaBalpha fusion protein by fluorescence polarization assay. In general terms: In fluorescence polarisation assays a small probe gives low polarisation when free and higher when bound to something large.
Data set [3] addresses Inhibitor of nuclear factor kappa-B kinase subunit alpha (Homo sapiens) (UniProt O15111). As to the kind of experiment: Inhibition of IKK2-catalyzed phosphorylation of GST-tagged IkappaBalpha fusion protein by fluorescence polarization assay.
Data set [4] in a line: Total AUC in rat at 2 mg/kg, iv. The data set is classed as ADME, organism-based. Also noted: time AUCmax, dose 2 mg/kg, route intravenous. The following applies: in vivo.
Data set [5] has as its system Blood. As to the kind of experiment: Antiinflammatory activity in Lewis rat whole blood assessed as inhibition of LPS-induced TNFalpha production treated 45 mins before LPS challenge measured after 4 hrs by ELISA. It is filed as functional, tissue-based.
The nature of data set [6]: Volume of distribution at steady state in rat at 2 mg/kg, iv. The following applies: in vivo, read-out: Vdss. Also noted: dose 2 mg/kg, route intravenous. The data set is classed as ADME, organism-based.
For data set [7], the system named is Serum. As to the kind of experiment: Drug level in Lewis rat serum at 10 mg/kg, po. The data set is classed as ADME, organism-based. Set-up: dose 10 mg/kg, route oral. The following applies: in vivo, read-out: Drug uptake.
Data set [8] in a line: Oral bioavailability in rat at 10 mg/kg. It is filed as ADME, organism-based. The settings on record: in vivo.
The nature of data set [9]: Mean residence time in rat at 10 mg/kg, po. It is filed as ADME, organism-based. Also noted: dose 10 mg/kg, route oral. The following applies: in vivo.
For data set [10], the system named is Rattus norvegicus. As to the kind of experiment: Antiinflammatory activity in Lewis rat assessed as inhibition of LPS-induced TNFalpha production at 30 mg/kg, po administered 4 hrs before LPS challenge measured after 90 mins by ELISA. The data set is classed as functional. Set-up: scale not given: the % may be the effect or the level left.
Data set [11] can be described thus: Clearance in rat at 2 mg/kg, iv. It is filed as ADME, organism-based. Also noted: dose 2 mg/kg, route intravenous. The settings on record: in vivo.
The nature of data set [12]: Half life in rat at 10 mg/kg, po. The data set is classed as ADME, organism-based. The following applies: in vivo. Also noted: dose 10 mg/kg, route oral.
The test system of data set [13] is Serum. As to the kind of experiment: Drug level in Lewis rat serum at 30 mg/kg, po. Set-up: dose 30 mg/kg, route oral. The settings on record: in vivo, read-out: Drug uptake. It is filed as ADME, organism-based.
Data set [14] in a line: Half life in rat at 2 mg/kg, iv. It is filed as ADME, organism-based. Set-up: dose 2 mg/kg, route intravenous. The settings on record: in vivo.
The nature of data set [15]: Aqueous solubility at pH 1.0. The following applies: aqueous solution. The data set is classed as physicochemical.
The test system of data set [16] is Rattus norvegicus. As to the kind of experiment: Antiinflammatory activity in po dosed Lewis rat assessed as inhibition of LPS-induced TNFalpha production administered 4 hrs before LPS challenge measured after 90 mins by ELISA. It is filed as functional, organism-based.
In data set [17] the test system is Blood. As to the kind of experiment: Antiinflammatory activity in Lewis rat whole blood assessed as inhibition of LPS-induced TNFalpha production at 17 uM treated 45 mins before LPS challenge measured after 4 hrs by ELISA. The data set is classed as functional, tissue-based.
The nature of data set [18]: Mean residence time in rat at 2 mg/kg, iv. It is filed as ADME, organism-based. Also noted: dose 2 mg/kg, route intravenous. The following applies: in vivo.
Data set [19] has as its system Serum. As to the kind of experiment: Drug level in Lewis rat serum at 3 mg/kg, po. It is filed as ADME, organism-based. Set-up: dose 3 mg/kg, route oral. The settings on record: in vivo, read-out: Drug uptake.
A short description of data set [20]: Total AUC in rat at 10 mg/kg, po. It is filed as ADME, organism-based. Also noted: time AUCmax, dose 10 mg/kg, route oral. The settings on record: in vivo.

15 compounds from ChEMBL document CHEMBL1151888, “Synthesis, initial SAR and biological evaluation of 1,6-dihydroimidazo[4,5-d]pyrrolo[2,3-b]pyridin-4-amine derived inhibitors of IkappaB kinase” (Bioorg Med Chem Lett, 2009) can be followed below.

Values after ≈ are worked out from the molar mass of the structure shown. Active and inactive are the calls of the source. The calls are words filed in the database; no cut-off is given here. Bounds are passed on as bounds.

Chain of Inhibitor of nuclear factor kappa-B kinase subunit alpha (Homo sapiens) (O15111 whole entry, looked up, the tested form may be a part): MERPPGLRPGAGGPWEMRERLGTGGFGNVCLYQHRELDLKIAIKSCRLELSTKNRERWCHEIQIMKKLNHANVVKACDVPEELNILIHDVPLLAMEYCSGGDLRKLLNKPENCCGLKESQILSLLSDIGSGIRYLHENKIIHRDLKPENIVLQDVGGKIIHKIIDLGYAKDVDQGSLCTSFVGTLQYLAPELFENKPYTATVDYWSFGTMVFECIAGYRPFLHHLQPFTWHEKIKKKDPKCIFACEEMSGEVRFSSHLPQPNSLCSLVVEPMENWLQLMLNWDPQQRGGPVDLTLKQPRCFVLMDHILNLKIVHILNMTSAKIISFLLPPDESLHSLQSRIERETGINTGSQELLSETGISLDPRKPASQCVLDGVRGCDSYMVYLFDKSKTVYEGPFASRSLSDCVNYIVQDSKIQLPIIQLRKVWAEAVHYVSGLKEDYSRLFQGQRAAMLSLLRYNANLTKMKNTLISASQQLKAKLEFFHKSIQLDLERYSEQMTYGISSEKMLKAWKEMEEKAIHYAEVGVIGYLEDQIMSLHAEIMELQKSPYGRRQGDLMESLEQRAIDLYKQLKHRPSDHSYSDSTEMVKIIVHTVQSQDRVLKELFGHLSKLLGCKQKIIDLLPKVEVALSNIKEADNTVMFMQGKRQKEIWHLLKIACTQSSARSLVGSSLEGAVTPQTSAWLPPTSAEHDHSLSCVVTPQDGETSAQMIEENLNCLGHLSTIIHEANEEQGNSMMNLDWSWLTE

On to `CNc1nc2[nH]c(-c3ccccc3F)cc2c2c1ncn2C`, for which the IC50 in the data set on PBMC was determined as 931 nM.

In the case of `CNc1nc2c(nc(-c3ccccc3)n2C)c2c1ncn2C`, the IC50 in the data set on PBMC came to 446 nM.

`CNc1nc2[nH]c(-c3cccc(C#N)c3)cc2c2c1ncn2C`: the solubility in data set [1] was less than 5 µg/mL. In addition, the IC50 in the data set on PBMC stood at 86 nM; in data set [2], 7 nM.

For the compound `CNc1nc2[nH]c(-c3cccc(CNC(=O)CO)c3)cc2c2c1ncn2C`, the IC50 with PBMC amounted to 478 nM.

Consider `CNc1nc2[nH]c(-c3cccc(CNC(=O)CCC(N)=O)c3)cc2c2c1ncn2C`, for which the results for the IC50 (with PBMC; in [2]) were 1000 nM and 22 nM, respectively.

As to `CNc1nc2[nH]c(-c3cccc(CN)c3)cc2c2c1ncn2C`, the IC50 with PBMC is 340 nM.

`CNc1nc2[nH]c(-c3cccc(OC)c3)cc2c2c1ncn2C`: the IC50 was 320 nM in the data set on PBMC and 8 nM in data set [2].

For the compound `CNc1nc2[nH]c(-c3ccccc3)cc2c2c1ncn2C`, in the data set on PBMC, the IC50 worked out at 800 nM.

As for `CNc1nc2[nH]c(-c3cccc(CNC(=O)CCOC)c3)cc2c2c1ncn2C`, the IC50 in data set [3] was determined as 2620 nM; in the data set with Blood [5] it was 8000 nM; in the data set on PBMC, 370 nM; in data set [2], 12 nM. In addition, the AUC was found to be 46.9 µM·h in data set [4] and 71.7 µM·h in data set [20]. The Vd in data set [6] was found to be 0.2 L/kg. In addition, the concentration came to 3000 nM in the data set with Serum [7], 17000 nM in the data set on Serum [13] and 900 nM with Serum [19]. This compound also returned a bioavailability in data set [8] of 31%. The MRT in data set [9] was 14.7 h; in data set [18], 2.1 h. Further, the Activity with Rattus norvegicus [10] is 85%; in the data set on Rattus norvegicus [16], “Dose-dependent effect”. The clearance in [11] is 1.8 mL/min/kg. Besides, the half-life in [12] was 11 h; in [14] it was 4.8 h. Besides, in [15], the concentration in solution (solubility) was 1820 µg/mL (≈ 4.65 mM). The outcome with Blood [17] was Active.

Turning to `CNc1nc2[nH]c(-c3ccc(F)cc3)cc2c2c1ncn2C`, the IC50 in [3] was determined as 1730 nM; in the data set with PBMC, 538 nM; in [2] it was 43 nM.

As to `CNc1nc2oc(-c3ccccc3)nc2c2c1ncn2C`, in the data set with PBMC, the IC50 was found to be 390 nM.

With `CNc1nc2[nH]c(-c3cccc(F)c3)cc2c2c1ncn2C`, in the data set on PBMC, the IC50 is 153 nM.

As to `CNc1nc2[nH]c(-c3cccc(CNC(C)=O)c3)cc2c2c1ncn2C`, the figures for the IC50 (in data set [3]; in the data set on PBMC; in data set [2]) were 633 nM, 372 nM and 14 nM, respectively.

Turning to `CNc1nc2sc(-c3ccccc3)nc2c2c1ncn2C`, in the data set on PBMC, the IC50 is 310 nM.

Consider `CNc1nc2[nH]c(-c3cccc(CNC(=O)CN(C)C)c3)cc2c2c1ncn2C`, for which the IC50 in the data set on PBMC was 2000 nM; in data set [2], 79 nM.

For orientation: IC50 means the concentration that gives 50% inhibition. A word on the solubility: it is the concentration that dissolves in the medium under given conditions. The term AUC denotes the area under the concentration-time curve, a measure of exposure. A word on the bioavailability: it is the share of a dose that reaches the circulation, judged against a reference dose that is usually intravenous. The MRT is a mean duration of stay, worked out from the concentration-time curve. Broadly, the clearance is the rate of elimination divided by the concentration. A word on the half-life: it is the time in which the quantity being followed falls by half.
